These results are taken from article PMC9019904, “AD Informer Set: Chemical tools to facilitate Alzheimer's disease drug discovery” (Alzheimer's & Dementia : Translational Research & Clinical …, 2022).

Where a SMILES comes first, the peptide text is derived from it. [ ]: non-standard residue; d: D form. The star is where a group is joined. ξ: configuration not given here. ξF = NC(Cc1ccccc1)C(=O)O; Cbz = O=C(OCc1ccccc1)*

Test [1] relates to HMC3 (human microglia) cell line. In words: pHrodo-myelin phagocytosis/cell viability high content imaging assay: phagocytosis signal. The class given is cell-based. In short, it runs like this: (§1)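 High content imaging, roughly 22 hours post pHrodo-myelin addition, recorded phagocytosis signal alongside viability in microglial lines BV2 (mouse) and HMC3 (human). Apoptosis tracked through intensity rise (early) and fall (later) among three extracted measurements.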

Test [2] deals with BV2 (mouse microglia) cell line. The description is as above. The class given is cell-based. In short, it runs like this:
as §1

The test system of test [3] is HMC3 (human microglia) cell line. In words: pHrodo-myelin phagocytosis/cell viability high content imaging assay: viability (cell count, nuclear area, nuclear intensity). The following applies: 48 hours treatment. The method in brief: (§2)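 Immortalized microglia are treated with compound (10 μM, single concentration) for 48 h, the final 20 h alongside pHrodo-myelin. Data are the mean of duplicates, reported as % of untreated control.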

Test [4] has as its system BV2 (mouse microglia) cell line. The test is described as above. The following applies: 48 hours treatment. In short, it runs like this: as §2
[5] abbreviates: HMC3 cells, 10 uM compound, 48 hours treatment, pHrodo-myelin final 20 hours.
Where [6] appears, read: BV2 cells, 10 uM compound, 48 hours treatment, pHrodo-myelin final 20 hours.
[7] abbreviates: HMC3, compound 10 uM, pHrodo-myelin.
The mark [8] stands for this setting: BV2, compound 10 uM, pHrodo-myelin.

Take `Cc1cc2c(cc1-c1cc(/C=C\C(=O)O)ccc1O)C(C)(C)CCC2(C)C` [UNC10302903A]: the “4. Phagocytosis (% control)” value in test [1] (setting [5]) amounted to 96.9 % control. Also, the “4. Phagocytosis (% control)” value in test [2] (setting [6]) worked out at 143.5 % control. Moreover, in test [3] (HMC3 cells, 10 uM compound), the “1. Cell count (% control)” value is 106.9 % control, the “2. Nuclear Area (% Control)” value turned out to be 99.9 % Control and the “3. Nuclear DNA Intensity (% control)” value was 95.8 % control. Also, in test [4] (BV2 cells, 10 uM compound), the “1. Cell count (% control)” value is reported as 102.7 % control, the “2. Nuclear Area (% Control)” value is on record as 107.7 % Control and the “3. Nuclear DNA Intensity (% control)” value came to 96.7 % control.

Consider `CNC(=O)c1cccc(-c2ccc3c(N4CCOC[C@@H]4C)nc(N4CCOC[C@@H]4C)nc3n2)c1` [UNC10302837A], for which the “4. Phagocytosis (% control)” value in test [1] (setting [7]) came out at 149.5 % control. The “4. Phagocytosis (% control)” value in test [2] (setting [8]) is reported as 328.3 % control. Moreover, in test [3] (HMC3, compound 10 uM), the “1. Cell count (% control)” value amounted to 99.5 % control, the “2. Nuclear Area (% Control)” value turned out to be 83.5 % Control and the “3. Nuclear DNA Intensity (% control)” value is 103.3 % control. Also, in test [4] (BV2, compound 10 uM), the “1. Cell count (% control)” value is listed as 47.4 % control, the “2. Nuclear Area (% Control)” value is 94.2 % Control and the “3. Nuclear DNA Intensity (% control)” value was determined as 117.6 % control.

As to `CN1CCN(CCCN2c3ccccc3Sc3ccc(C(F)(F)F)cc32)CC1.Cl.Cl` [UNC10101287D], in test [1] (setting [7]), the “4. Phagocytosis (% control)” value is 45.4 % control. Besides, in test [2] (setting [8]), the “4. Phagocytosis (% control)” value came out at 137.1 % control. In test [3] (HMC3, compound 10 uM), the “1. Cell count (% control)” value stood at 79.4 % control, the “2. Nuclear Area (% Control)” value worked out at 102.6 % Control and the “3. Nuclear DNA Intensity (% control)” value worked out at 95.6 % control. In test [4] (BV2, compound 10 uM), the “1. Cell count (% control)” value is listed as 26.5 % control, the “2. Nuclear Area (% Control)” value is given as 111.5 % Control and the “3. Nuclear DNA Intensity (% control)” value is listed as 99.8 % control.

Consider `O=C(O)c1cc2nc(-c3ccc(Cl)cc3)cc(C(F)(F)F)n2n1` [UNC10302881A], for which, in test [1] (setting [5]), the “4. Phagocytosis (% control)” value stood at 94.6 % control. Besides, the “4. Phagocytosis (% control)” value in test [2] (setting [6]) is 163.1 % control. In test [3] (HMC3 cells, 10 uM compound), the “1. Cell count (% control)” value is recorded as 123.0 % control, the “2. Nuclear Area (% Control)” value is 99.8 % Control and the “3. Nuclear DNA Intensity (% control)” value was 93.1 % control. In addition, in test [4] (BV2 cells, 10 uM compound), the “1. Cell count (% control)” value turned out to be 116.3 % control, the “2. Nuclear Area (% Control)” value is listed as 105.9 % Control and the “3. Nuclear DNA Intensity (% control)” value turned out to be 97.1 % control.

Take `CC(C)[C@H](NC(=O)OCc1ccccc1)C(=O)NC(C=O)Cc1ccccc1` (stereo partly drawn) [UNC10302675A] (Cbz-Val-[ξF]-aldehyde): the “4. Phagocytosis (% control)” value in test [1] (setting [5]) came out at 106.9 % control. The “4. Phagocytosis (% control)” value in test [2] (setting [6]) was 144.5 % control. In test [3] (HMC3 cells, 10 uM compound), the “1. Cell count (% control)” value is given as 109.7 % control, the “2. Nuclear Area (% Control)” value was found to be 102.5 % Control and the “3. Nuclear DNA Intensity (% control)” value was 106.2 % control. Also, in test [4] (BV2 cells, 10 uM compound), the “1. Cell count (% control)” value worked out at 117.2 % control, the “2. Nuclear Area (% Control)” value worked out at 102.4 % Control and the “3. Nuclear DNA Intensity (% control)” value amounted to 114.8 % control.

As for `CCOC(=O)N1c2ccc(C(F)(F)F)cc2[C@@H](N(Cc2cc(C(F)(F)F)cc(C(F)(F)F)c2)C(=O)OC)C[C@H]1CC` [UNC10302851A], in test [1] (setting [5]), the “4. Phagocytosis (% control)” value was 85.4 % control. Besides, the “4. Phagocytosis (% control)” value in test [2] (setting [6]) was 135.7 % control. In addition, in test [3] (HMC3 cells, 10 uM compound), the “1. Cell count (% control)” value was 125.3 % control, the “2. Nuclear Area (% Control)” value is on record as 99.8 % Control and the “3. Nuclear DNA Intensity (% control)” value was found to be 94.2 % control. In test [4] (BV2 cells, 10 uM compound), the “1. Cell count (% control)” value was determined as 124.9 % control, the “2. Nuclear Area (% Control)” value is 104.2 % Control and the “3. Nuclear DNA Intensity (% control)” value is 100.1 % control.

As for `Nc1nc(Nc2ccc3c(c2)CC[C@@H](N2CCCC2)CC3)nn1-c1cc2c(nn1)-c1ccccc1CCC2` [UNC10220544A], the “4. Phagocytosis (% control)” value in test [1] (setting [5]) is 0.8 % control. Further, the “4. Phagocytosis (% control)” value in test [2] (setting [6]) is given as 0.0 % control. In addition, in test [3] (HMC3 cells, 10 uM compound), the “1. Cell count (% control)” value is recorded as 56.4 % control, the “2. Nuclear Area (% Control)” value amounted to 55.3 % Control and the “3. Nuclear DNA Intensity (% control)” value came out at 170.6 % control. In addition, in test [4] (BV2 cells, 10 uM compound), the “1. Cell count (% control)” value amounted to 2.8 % control, the “2. Nuclear Area (% Control)” value was 94.5 % Control and the “3. Nuclear DNA Intensity (% control)” value stood at 55.2 % control.

Consider `COc1cccc2c(NCc3ccccc3)nc(-n3c(N)nc4ccccc43)nc12` [UNC10302841A], for which the “4. Phagocytosis (% control)” value in test [1] (setting [5]) was 0.0406 % control. Further, the “4. Phagocytosis (% control)” value in test [2] (setting [6]) turned out to be 0.00115 % control. In test [3] (HMC3 cells, 10 uM compound), the “1. Cell count (% control)” value was 55.4 % control, the “2. Nuclear Area (% Control)” value is given as 78.1 % Control and the “3. Nuclear DNA Intensity (% control)” value was 92.0 % control. Besides, in test [4] (BV2 cells, 10 uM compound), the “1. Cell count (% control)” value turned out to be 33.6 % control, the “2. Nuclear Area (% Control)” value was 129.2 % Control and the “3. Nuclear DNA Intensity (% control)” value was 62.4 % control.
